Test results taken from ChEMBL document CHEMBL1201862, “PubChem BioAssay data set” (2004).
Where “and” joins values, the source holds several entries; their conditions need not be identical. Identical values can stand only once.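 A five-concentration, 48-hour dose response in 96-well plates underlies each endpoint, interpolated linearly between surrounding concentrations. At the GI50, growth is halved.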 Calls of active or inactive are those of the source. No stated cut-off is given here; in the data, active = GI50 up to about 1.1 µM and inactive = higher.

Assays:
Test in all cases: DTP human tumour cell line panel, 48 h
K562 = system: K562
EKVX = system: EKVX
SN12C = system: SN12C
PC-3 = system: PC-3
NCI/ADR-RES = system: NCI/ADR-RES
HCT-15 = system: HCT-15
Hs-578T = system: Hs-578T
UACC-257 = system: UACC-257
SNB-75 = system: SNB-75
NCI-H460 = system: NCI-H460
IGROV-1 = system: IGROV-1
NCI-H226 = system: NCI-H226
HCT-116 = system: HCT-116
SK-OV-3 = system: SK-OV-3
NCI-H23 = system: NCI-H23
T47D = system: T47D
SF-268 = system: SF-268
RXF 393 = system: RXF 393
MDA-MB-435 = system: MDA-MB-435

Measured: GI50

N/C(=N\c1ccc(Cl)cc1)NS(=O)(=O)c1ccc(-c2ncccc2C(F)(F)F)s1
16.6 µM: HCT-15
inactive: K562 13.1 µM | EKVX 4.61 µM | SN12C 17.2 µM | PC-3 13.1 µM | NCI/ADR-RES 18.8 µM | Hs-578T 17.1 µM | UACC-257 3.17 µM | SNB-75 18.8 µM | NCI-H460 13.1 µM | IGROV-1 12 µM | NCI-H226 17.2 µM | HCT-116 14 µM | SK-OV-3 17.4 µM | NCI-H23 13.5 µM | T47D 12.3 µM | SF-268 16.5 µM | RXF 393 18.3 µM

C=C1CC[C@@H](C)[C@](C)(CCc2ccoc2)C/C=C\C=C/1C(=O)O
inactive: K562 32.3 µM | EKVX 64.6 µM | SN12C 50.5 µM | PC-3 28.9 µM | NCI/ADR-RES 25.7 µM | Hs-578T 71 µM | MDA-MB-435 37.6 µM | UACC-257 53 µM | SNB-75 80 µM | NCI-H460 30.2 µM | IGROV-1 51.4 µM | NCI-H226 35.6 µM | HCT-116 21.8 µM | SK-OV-3 69.2 µM | NCI-H23 50.4 µM | RXF 393 29.9 µM
35.2 µM: HCT-15

NC1=NC(=O)C2(NN1)c1ccccc1-c1ccccc12
inactive: K562 9.82 µM | SN12C > 10 µM | PC-3 > 10 µM | NCI/ADR-RES 7.41 µM | SNB-75 > 10 µM | NCI-H460 > 10 µM | IGROV-1 > 10 µM | NCI-H226 > 10 µM | HCT-116 > 10 µM | SK-OV-3 > 10 µM | NCI-H23 > 10 µM | T47D 2.42 µM | SF-268 > 10 µM | RXF 393 > 10 µM
> 10 µM: HCT-15

COP1(=S)OCC2CCC[C@@H]2O1 (stereo not given in full)
inactive: K562 > 100 µM | SN12C > 100 µM | PC-3 > 100 µM | NCI/ADR-RES > 100 µM | MDA-MB-435 > 100 µM | UACC-257 > 100 µM | SNB-75 > 100 µM | NCI-H460 > 100 µM | IGROV-1 > 100 µM | NCI-H226 > 100 µM | HCT-116 > 100 µM | NCI-H23 > 100 µM | T47D > 100 µM | SF-268 > 100 µM | RXF 393 > 100 µM
> 100 µM: HCT-15

C[C@@]1(Br)C[C@@](C)(Cl)[C@@H](Br)CC1/C=C/Cl (stereo not given in full)
inactive: K562 15.3 µM | SN12C 15 µM | PC-3 15.9 µM | NCI/ADR-RES 13.1 µM | Hs-578T 16.7 µM | MDA-MB-435 16.9 µM | UACC-257 17.9 µM | SNB-75 12.8 µM | NCI-H460 28.6 µM | IGROV-1 8.15 µM | NCI-H226 10.8 µM | HCT-116 11 µM | SK-OV-3 17.5 µM | NCI-H23 28.6 µM | SF-268 11.1 µM
27 µM: HCT-15

Nc1ccc(COC(O)CN2CCCCC2)cc1[N+](=O)[O-] (stereo not given)
> 100 µM: HCT-15
inactive: K562 > 100 µM | SN12C > 100 µM | PC-3 > 100 µM | NCI/ADR-RES > 100 µM | MDA-MB-435 > 100 µM | UACC-257 > 100 µM | SNB-75 70.5 µM | NCI-H460 > 100 µM | IGROV-1 > 100 µM | NCI-H226 > 100 µM | HCT-116 > 100 µM | NCI-H23 > 100 µM | T47D > 100 µM | SF-268 > 100 µM | RXF 393 > 100 µM

CCOc1cc(CC[N+](C)(C)C)c2c(ccc3ccc(OC)c(OC)c32)c1OC
inactive: EKVX > 100 µM | SN12C > 100 µM | PC-3 > 100 µM | NCI/ADR-RES > 100 µM | MDA-MB-435 > 100 µM | SNB-75 > 100 µM | IGROV-1 > 100 µM | HCT-116 > 100 µM | SK-OV-3 > 100 µM | NCI-H23 > 10 µM | T47D > 100 µM | SF-268 > 100 µM | RXF 393 > 10 µM

COc1cc(C(=O)n2c3ccc(Br)cc3c3nc4ccccc4nc32)cc(OC)c1OC
> 100 µM: HCT-15
inactive: K562 > 100 µM | EKVX > 100 µM | SN12C > 100 µM | PC-3 > 100 µM | NCI/ADR-RES > 100 µM | MDA-MB-435 > 100 µM | UACC-257 > 100 µM | SNB-75 26.2 µM | NCI-H460 > 100 µM | IGROV-1 > 100 µM | NCI-H226 > 100 µM | HCT-116 > 100 µM | NCI-H23 > 100 µM | T47D > 100 µM | SF-268 60.5 µM | RXF 393 19.7 µM

COc1ccc(/C=N/Nc2nc3ccccc3c(=O)n2-c2ccccc2)c(OCc2ccccc2)c1
> 100 µM: HCT-15
inactive: K562 > 100 µM | EKVX 33.9 µM | SN12C > 100 µM | PC-3 35.6 µM | NCI/ADR-RES > 100 µM | MDA-MB-435 > 100 µM | UACC-257 > 100 µM | NCI-H460 > 100 µM | IGROV-1 > 100 µM | NCI-H226 > 100 µM | HCT-116 > 100 µM | SK-OV-3 > 100 µM | NCI-H23 > 100 µM | T47D > 100 µM | SF-268 > 100 µM | RXF 393 > 100 µM

C1=N\CCOCC/N=C/c2ccccc2OCc2cccc(n2)COc2ccccc2/1
inactive: K562 2.38 µM | EKVX 16.6 µM | SN12C 5.96 µM | PC-3 8.93 µM | NCI/ADR-RES 3.39 µM | Hs-578T 6.82 µM | UACC-257 8.11 µM | SNB-75 2.83 µM | NCI-H460 > 25 µM | IGROV-1 6.3 µM | HCT-116 4.99 µM | SK-OV-3 11.2 µM | NCI-H23 12.5 µM | SF-268 9.4 µM | RXF 393 9.59 µM
6.46 µM: HCT-15
active: MDA-MB-435 0.778 µM

C=C(C)C12OC3(c4ccccc4)OC1C1C4OC4(CO)C(O)C4(O)C(=O)C(C)=CC4C1(O3)C(C)C2OC(=O)/C=C/C=C/c1ccccc1 (stereo not given)
active: K562 < 0.0005 µM | EKVX 0.188 µM | SN12C 0.112 µM | PC-3 0.111 µM | NCI/ADR-RES 0.344 µM | MDA-MB-435 < 0.0005 µM | UACC-257 0.453 µM | SNB-75 0.132 µM | NCI-H460 < 0.0005 µM | IGROV-1 0.537 µM | NCI-H226 0.228 µM | HCT-116 0.228 µM | NCI-H23 0.312 µM | SF-268 0.247 µM | RXF 393 0.207 µM
inactive: SK-OV-3 1.15 µM | T47D 1.51 µM
0.258 µM: HCT-15

CCOP(=O)(OCC)C(C)(CC)NC(=O)C(C(F)(F)F)C(F)(F)F (stereo not given)
inactive: EKVX > 100 µM | SN12C > 100 µM | PC-3 > 100 µM | NCI/ADR-RES > 100 µM | Hs-578T > 100 µM | MDA-MB-435 > 100 µM and > 87.7 µM | UACC-257 > 100 µM | NCI-H460 > 100 µM | IGROV-1 > 100 µM | NCI-H226 > 100 µM | HCT-116 > 100 µM | SK-OV-3 > 100 µM | NCI-H23 > 100 µM | SF-268 > 100 µM | RXF 393 > 100 µM
> 100 µM: HCT-15

COc1ccc(N[S+]([O-])c2ccccc2OC)cc1 (stereo not given)
inactive: K562 8.28 µM | EKVX 38.9 µM | SN12C > 100 µM | NCI/ADR-RES 15.9 µM | Hs-578T 21.7 µM | MDA-MB-435 7.53 µM | UACC-257 33.7 µM | NCI-H460 16 µM | IGROV-1 7.87 µM | NCI-H226 13.4 µM | HCT-116 13.9 µM | NCI-H23 40.8 µM | T47D 4.37 µM | SF-268 7.28 µM
5.16 µM: HCT-15

[N-]=[N+]=C(C(=O)CN1CCCC1=O)S(=O)(=O)c1ccccc1
inactive: K562 > 100 µM | EKVX > 100 µM | SN12C > 100 µM | PC-3 > 100 µM | NCI/ADR-RES > 100 µM | Hs-578T > 100 µM | MDA-MB-435 > 100 µM | UACC-257 > 100 µM | SNB-75 > 100 µM | NCI-H460 > 100 µM | IGROV-1 > 100 µM | NCI-H226 > 100 µM | HCT-116 > 100 µM | NCI-H23 > 100 µM | SF-268 > 100 µM | RXF 393 > 100 µM
> 100 µM: HCT-15

Cc1nc(Cl)nc(Cl)c1C
> 100 µM: HCT-15
inactive: K562 > 100 µM | EKVX > 100 µM | SN12C > 100 µM | PC-3 > 100 µM | NCI/ADR-RES > 100 µM | Hs-578T > 100 µM | MDA-MB-435 > 100 µM | UACC-257 > 100 µM | SNB-75 > 100 µM | NCI-H460 > 100 µM | IGROV-1 > 100 µM | NCI-H226 > 100 µM | SK-OV-3 > 100 µM | NCI-H23 > 100 µM | SF-268 > 100 µM | RXF 393 > 100 µM

Cn1c2ccc3cc2c(=S)c2cc(ccc21)OCCOCCOCCOCCOCCOCCO3
> 10 µM: HCT-15
inactive: K562 > 10 µM | EKVX > 10 µM | SN12C > 10 µM | PC-3 > 10 µM | NCI/ADR-RES > 10 µM | Hs-578T > 10 µM | UACC-257 > 10 µM | SNB-75 > 10 µM | NCI-H460 > 10 µM | IGROV-1 > 10 µM | NCI-H226 > 10 µM | HCT-116 > 10 µM | SK-OV-3 > 10 µM | NCI-H23 > 10 µM | T47D > 10 µM | SF-268 > 10 µM | RXF 393 > 10 µM

Nc1ccc(S(=O)(=O)NCCS(=O)(=O)O)cc1
> 100 µM: HCT-15
inactive: K562 > 100 µM | EKVX > 100 µM | SN12C > 100 µM | PC-3 > 100 µM | NCI/ADR-RES > 100 µM | Hs-578T > 100 µM | MDA-MB-435 > 100 µM | UACC-257 > 100 µM | SNB-75 > 100 µM | NCI-H460 > 100 µM | IGROV-1 > 100 µM | NCI-H226 > 100 µM | HCT-116 > 100 µM | NCI-H23 > 100 µM | SF-268 > 100 µM | RXF 393 > 100 µM
